Experimental data taken from US20250144067A1, “PERSONALIZED STARVATION THERAPY FOR CANCER” (Faeth Therapeutics, Inc., priority 2021, published 2025).
Counter-ions that a name gives are not always drawn.

How the values were obtained:
[1] = system: NCI-H292 lung cancer cells; assay: FDA drug screening, complete media vs cholesterol-free media without statin (TABLE 1); assay type: cell-based, human
[2] = system: NCI-H292 lung cancer cells; assay: FDA drug screening, complete media vs cholesterol-free media with simvastatin (TABLE 2); assay type: cell-based, human; conditions: for Cholesterol-free media + simvastatin (0.04 μM) / Complete Media: NCI-H292 cells
[3] = NCI-H292 cells, cholesterol-free media without statin
[4] = complete vs cholesterol-free media, greater than 0 enhanced anti-cancer activity, about 0 neutral, below 0 antagonists
[5] = FDA drug library screen, cholesterol-free media with simvastatin 0.04 μM
[6] = FDA drug library screen, complete media
[7] = complete media vs cholesterol-free media + simvastatin (0.04 μM), >0 enhanced anti-cancer activity, about 0 neutral, <0 antagonist
[8] = Complete minus Cholesterol-free, […]
[9] = NCI-H292 cells, cholesterol-free media without statin, FDA drug library screen
[10] = NCI-H292 cells, complete media, FDA drug library screen
[11] = FDA library drug in cholesterol-free media with simvastatin 0.04 μM
[12] = FDA library drug in complete media
[13] = complete media vs cholesterol-free media + simvastatin (0.04 μM), […]
[14] = Complete minus Cholesterol-free, >0 enhanced anti-cancer activity, about 0 neutral, <0 antagonist
[15] = NCI-H292 cells, FDA drug library screen, cholesterol-free media without statin
[16] = NCI-H292 cells, FDA drug library screen, complete media
[17] = drug in cholesterol-free media with simvastatin 0.04 μM
[18] = complete vs cholesterol-free media, […]
[19] = complete media minus cholesterol-free media + simvastatin, […]
[20] = complete vs cholesterol-free media, >0 enhanced anti-cancer activity, about 0 neutral, <0 antagonist
[21] = Complete minus Cholesterol-free, greater than 0 enhanced anti-cancer activity, about 0 neutral, below 0 antagonists
[22] = NCI-H292 cells in cholesterol-free media without statin
[23] = NCI-H292 cells in complete media
[24] = cholesterol-free media with simvastatin 0.04 μM, FDA drug library screen (TABLE 2)
[25] = complete media, FDA drug library screen (TABLE 2)
[26] = complete media minus cholesterol-free media + simvastatin (0.04 μM), >0 enhanced anti-cancer activity, about 0 neutral, <0 antagonist

Molecule | Cholesterol-free [1, 3] | Complete ([1]; NCI-H292 cells, complete media) | Cholesterol-free media + simvastatin (0.04 μM) [2, 5] | Difference [2, 7] | Cholesterol-free [1, 9] | Complete [1, 10] | Cholesterol-free media + simvastatin (0.04 μM) [2, 11] | Complete Media [2, 12] | Difference [1, 14] | further results
Tosufloxacin (tosylate hydrate) | 1.21 | 0.8679 | 1.004 | −0.08 | – | – | – | – | – | Difference [1, 4]: −0.34; Complete Media [2, 6]: 0.9272
NCCC[C@H](NC(=O)[C@@H]1CCCN1C(=O)[C@@H]1CSSC[C@H](N)C(=O)N[C@@H](Cc2ccc(O)cc2)C(=O)N[C@@H](Cc2ccccc2)C(=O)N[C@@H](CCC(N)=O)C(=O)N[C@@H](CC(N)=O)C(=O)N1)C(=O)NCC(N)=O [Ornipressin] | – | – | – | – | 1.024 | 1.051 | 1.553 | 0.7895 | – | Difference [1, 8]: 0.03; Difference [2, 13]: −0.76
NC(=O)c1cnccn1 [Pyrazinamide] | – | – | 0.9396 | −0.14 | 0.9745 | 1.011 | – | – | 0.04 | Complete Media [2, 6]: 0.8009
COc1ccc(C(=O)NCc2ccc(OCCN(C)C)cc2)cc1OC [Itopride (hydrochloride)] | – | – | – | −0.65 | 1.141 | 1.104 | 1.711 | 1.056 | −0.04 | –
NC(=O)NC1NC(=O)NC1=O (stereo not shown) [Allantoin] | – | – | – | −0.51 | – | – | 1.146 | 0.6387 | – | Difference ([1]; Complete minus Cholesterol-free, greater than 0 enhanced anti-cancer activity, about 0 neutral, below 0 antagonist): −0.09; Cholesterol-free [1, 15]: 0.5704; Complete [1, 16]: 0.4823
CO/N=C(\C(=O)N[C@@H]1C(=O)N2C(C(=O)O)=C(COC(C)=O)CS[C@H]12)c1csc(N)n1 [Cefotaxime (sodium salt)] | 1.268 | 0.9622 | 1.284 | −0.15 | – | – | – | – | – | Difference [1, 4]: −0.31; Complete Media [2, 6]: 1.139
CCCCC[C@H](O)CC[C@@H]1[C@H]2Cc3cccc(OCC(=O)O)c3C[C@H]2C[C@H]1O [Treprostinil (sodium)] | – | – | – | −0.22 | 1.017 | 0.9998 | – | – | −0.02 | Cholesterol-free media + simvastatin (0.04 μM) [2, 17]: 1.119; Complete Media ([2]; drug in complete media): 0.898
Dabrafenib (Mesylate) | – | – | 0.4336 | – | 0.4044 | 0.6337 | – | – | – | Difference [1, 18]: 0.23; Complete Media [2, 6]: 0.6478; Difference [2, 19]: 0.21
COc1cc(Cc2cnc(N)nc2N)cc(OC)c1OC [Trimethoprim] | – | – | – | −0.27 | 0.567 | 1.096 | 1.335 | 1.064 | – | Difference [1, 20]: 0.53
O=C1CCC[C@@H]2[C@H]3CCC[N+]4([O-])CCC[C@@H](CN12)[C@@H]34 (stereo partly shown) [Oxymatrine] | – | – | – | −0.28 | 0.9493 | 0.9958 | 1.185 | 0.9014 | 0.05 | –
CO[C@@]1(NC(=O)Cc2cccs2)C(=O)N2C(C(=O)O)=C(COC(N)=O)CS[C@@H]21 [Cefoxitin (sodium)] | – | – | – | – | – | – | – | – | – | Difference [1, 21]: −0.48; Cholesterol-free [1, 22]: 1.299; Complete [1, 23]: 0.8161; Cholesterol-free media + simvastatin (0.04 μM) [2, 24]: 0.9202; Complete Media [2, 25]: 0.8818; Difference [2, 26]: −0.04
CNC[C@H](O)c1cccc(O)c1 [Phenylephrine (hydrochloride)] | – | – | 2.302 | – | – | – | – | – | – | Difference [1, 21]: −0.61; Cholesterol-free [1, 22]: 1.371; Complete [1, 23]: 0.7558; Difference [2, 26]: −1.21
Nc1c(CC(=O)O)cccc1C(=O)c1ccc(Br)cc1 [Bromfenac (sodium hydrate)] | 1.074 | 0.716 | 1.132 | – | – | – | – | – | – | Difference [1, 4]: −0.36; Complete Media [2, 6]: 1.293; Difference ([2]; complete media minus cholesterol-free media + simvastatin, >0 enhanced anti-cancer activity, about 0 neutral, <0 antagonist): 0.16
O=C(O)c1cccnc1Nc1cccc(C(F)(F)F)c1 [Niflumic acid] | – | – | – | −0.71 | 0.872 | 1.486 | 0.9955 | 0.2879 | – | Difference [1, 20]: 0.61
CNC(=O)c1ccc(N2C(=S)N(c3cnc(C#N)c(C(F)(F)F)c3)C(=O)C23CCC3)cc1F [Apalutamide] | 1.195 | 0.8274 | – | – | – | – | – | – | – | Difference [1, 4]: −0.37; Cholesterol-free media + simvastatin (0.04 μM) [2, 24]: 1.113; Complete Media [2, 25]: 1.082; Difference [2, 26]: −0.03
C[N+](C)(C)C[C@H](O)CC(=O)[O-].Cl [L-Carnitine (hydrochloride)] | 1.478 | – | – | – | – | – | – | – | – | Difference [1, 18]: −0.31; Cholesterol-free media + simvastatin (0.04 μM) ([2]; cholesterol-free media with simvastatin 0.04 μM, […]): 0.7755; Complete Media ([2]; complete media, […]): 0.7998; Difference [2, 19]: 0.02
COc1ccc(CN=c2[nH]c(N3CCC[C@H]3CO)ncc2C(=O)NCc2ncccn2)cc1Cl [Avanafil] | 0.9577 | 0.6848 | – | −0.21 | – | – | – | – | −0.27 | Cholesterol-free media + simvastatin (0.04 μM) [2, 17]: 1.12; Complete Media ([2]; drug in complete media): 0.9091
Nc1ccc(C(=O)O)c(O)c1 [4-Aminosalicylic acid] | – | – | 1.199 | – | – | – | – | – | – | Difference [1, 8]: −0.16; Cholesterol-free [1, 15]: 1.094; Complete [1, 16]: 0.9375; Complete Media [2, 6]: 1.112; Difference [2, 13]: −0.09
C=C[C@H]1C[N@@]2CC[C@H]1C[C@@H]2[C@@H](O)c1ccnc2ccc(OC)cc12 [Quinidine hydrochloride monohydrate] | – | – | – | – | 1.211 | 1.222 | – | – | 0.01 | Cholesterol-free media + simvastatin (0.04 μM) [2, 24]: 1.46; Complete Media [2, 25]: 1.402; Difference [2, 26]: −0.06
NS(=O)(=O)c1cc(C2(O)NC(=O)c3ccccc32)ccc1Cl (stereo not shown) [Chlorthalidone] | 1.209 | 0.9927 | – | −0.22 | – | – | – | – | −0.22 | Cholesterol-free media + simvastatin (0.04 μM) [2, 17]: 1.215; Complete Media ([2]; drug in complete media): 0.9907
Nc1ccc(S(=O)(=O)Nc2nccs2)cc1 [Sulfathiazole (sodium)] | 1.264 | 1.047 | – | −0.81 | – | – | 1.852 | 1.04 | −0.22 | –
N[C@@H]1CN(c2c(F)cc3c(=O)c(C(=O)O)cn([C@@H]4C[C@@H]4F)c3c2Cl)CC12CC2.O [Sitafloxacin (hydrate)] | 1.147 | 0.7079 | – | – | – | – | 1.043 | 0.7235 | – | Difference [1, 18]: −0.44; Difference [2, 13]: −0.32
